These are literature values, as cited in patent publication US20130052262A1, “DABIGATRAN ETEXILATE-CONTAINING ORAL PHARMACEUTICAL COMPOSITION” (priority 2010, published 2013).

For the series the following is noted: in the acidic environment.

For `CCCCCCOC(=O)NC(=N)c1ccc(NCc2nc3cc(C(=O)N(CCC(=O)OCC)c4ccccn4)ccc3n2C)cc1` [dabigatran etexilate, 3-[(2-{[4-(hexyloxycarbonylamino-imino-methyl)-phenylamino]-methyl}-1-methyl-1H-benzimidazole-5-carbonyl)-pyridine-2-yl-amino]-propionic acid ethyl ester], the pH-dependent solubility entry is on record as “greatly increased”.
